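How tested: cells in 96-well plates exposed to compound for 48 hours at five concentrations. GI50 is the concentration that inhibits growth by half.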 Activity calls are given as the source filed them. Cut-off read from the data, not from the text of the source: active = GI50 up to about 1.1 µM and inactive = higher.
How the values were obtained:
Experiment in all cases: DTP human tumour cell line panel, 48 h
RPMI-8226 = system: RPMI-8226
OVCAR-8 = system: OVCAR-8
SNB-19 = system: SNB-19
SK-MEL-5 = system: SK-MEL-5
NCI-H460 = system: NCI-H460
COLO 205 = system: COLO 205
NCI-H23 = system: NCI-H23
EKVX = system: EKVX
KM12 = system: KM12
SF-268 = system: SF-268
U-251 = system: U-251
SNB-75 = system: SNB-75
SK-OV-3 = system: SK-OV-3
OVCAR-4 = system: OVCAR-4
NCI-H522 = system: NCI-H522
LOX IMVI = system: LOX IMVI
SK-MEL-28 = system: SK-MEL-28
786-0 = system: 786-0
PC-3 = system: PC-3
Hs-578T = system: Hs-578T

Structure (SMILES) | GI50 (RPMI-8226) | GI50 (OVCAR-8) | GI50 (SNB-19) | GI50 (SK-MEL-5) | GI50 (NCI-H460) | GI50 (COLO 205) | GI50 (NCI-H23) | GI50 (EKVX) | GI50 (KM12) | GI50 (SF-268) | GI50 (U-251) | GI50 (SNB-75) | GI50 (SK-OV-3) | GI50 (OVCAR-4) | GI50 (NCI-H522) | GI50 (LOX IMVI) | GI50 (SK-MEL-28) | GI50 (786-0) | GI50 (PC-3) | GI50 (Hs-578T)
Cc1ccc(/N=N/c2c(-c3ccccc3)nn(C(=O)CC(=O)Nc3ccc(Cl)cc3)c2-c2ccccc2)cc1 | 18.8 µM (inactive) | 32.1 µM (inactive) | 49.7 µM (inactive) | 90.8 µM (inactive) | > 100 µM (inactive) | 59.3 µM (inactive) | 44.2 µM (inactive) | 2.3 µM (inactive) | 38.3 µM (inactive) | 70.5 µM (inactive) | 40 µM (inactive) | 20.6 µM (inactive) | > 100 µM (inactive) | 77.3 µM (inactive) | 37.8 µM (inactive) | 46.7 µM (inactive) | > 100 µM (inactive) | 36.5 µM (inactive) | – | –
CC(=O)C(CN(C)Cc1ccccc1)C(c1ccccc1)c1c(O)c2ccccc2oc1=O (configuration not stated) | 58.6 µM (inactive) | > 100 µM (inactive) | 11 µM (inactive) | > 100 µM (inactive) | > 100 µM (inactive) | > 100 µM (inactive) | > 100 µM (inactive) | > 100 µM (inactive) | > 100 µM (inactive) | > 100 µM (inactive) | > 100 µM (inactive) | > 100 µM (inactive) | > 100 µM (inactive) | > 100 µM (inactive) | 80.4 µM (inactive) | > 100 µM (inactive) | > 100 µM (inactive) | > 100 µM (inactive) | – | –
CN(C)c1nncc2[nH]nnc12 | > 100 µM (inactive) | > 100 µM (inactive) | – | > 100 µM (inactive) | – | > 100 µM (inactive) | > 100 µM (inactive) | > 100 µM (inactive) | > 100 µM (inactive) | – | > 100 µM (inactive) | > 100 µM (inactive) | > 100 µM (inactive) | > 100 µM (inactive) | > 100 µM (inactive) | > 100 µM (inactive) | > 100 µM (inactive) | > 100 µM (inactive) | > 100 µM (inactive) | –
COC(=O)[C@H](C)[C@H]1CC[C@@](C)([C@H]2CC3C(C)(C)[C@H]4CCC(C)=C[C@H]4C[C@@]3(C)O2)OO1 (some centres not stated) | 2.92 µM (inactive) | 10.7 µM (inactive) | 14.8 µM (inactive) | 4.72 µM (inactive) | 2.05 µM (inactive) | 9.66 µM (inactive) | 7.6 µM (inactive) | 13.7 µM (inactive) | 11.7 µM (inactive) | 8.77 µM (inactive) | 13 µM (inactive) | 6.14 µM (inactive) | 30.5 µM (inactive) | 11.9 µM (inactive) | 1.66 µM (inactive) | 1.6 µM (inactive) | 14.6 µM (inactive) | 3.33 µM (inactive) | – | –
C/C(=N\NC(=S)NNC(=S)N(C)c1ccccc1)c1ccccn1 | 0.912 µM (active) | 0.538 µM (active) | 2.7 µM (inactive) | – | 0.681 µM (active) | 0.673 µM (active) | 2.79 µM (inactive) | 0.805 µM (active) | 4.21 µM (inactive) | 2.91 µM (inactive) | 1.11 µM (active) | 6.76 µM (inactive) | 1.48 µM (inactive) | 1.75 µM (inactive) | – | – | 4.25 µM (inactive) | 1.3 µM (inactive) | – | 26 µM (inactive)
Cc1ccc(S(=O)(=O)N2CCC(=O)c3cc(Br)ccc32)cc1 | 12.2 µM (inactive) | 14.4 µM (inactive) | 18.4 µM (inactive) | 7.05 µM (inactive) | 19.3 µM (inactive) | 16.9 µM (inactive) | 19.2 µM (inactive) | 23.9 µM (inactive) | 3.24 µM (inactive) | 18.2 µM (inactive) | 3.72 µM (inactive) | 14.6 µM (inactive) | 20.5 µM (inactive) | 16.8 µM (inactive) | 7.93 µM (inactive) | 6.52 µM (inactive) | 24.7 µM (inactive) | 10.1 µM (inactive) | 6.01 µM (inactive) | –
Oc1c(Cl)c(Cl)c(O)c(-c2cnc(-c3ncc(-c4c(O)c(Cl)c(Cl)c(O)c4Cl)s3)s2)c1Cl | – | 16.7 µM (inactive) | 27.9 µM (inactive) | 7.8 µM (inactive) | 30.1 µM (inactive) | 28.6 µM (inactive) | 19.3 µM (inactive) | 21.2 µM (inactive) | 29.2 µM (inactive) | 22 µM (inactive) | 22.6 µM (inactive) | 28.1 µM (inactive) | 41.2 µM (inactive) | 80.5 µM (inactive) | 2.1 µM (inactive) | – | 29.6 µM (inactive) | 25.1 µM (inactive) | 29.4 µM (inactive) | 15.2 µM (inactive)
C=C1CC[C@@H]2C(C)(C)CCC[C@@]2(C)[C@@H]1Cc1cc(O)ccc1O | 3.14 µM (inactive) | 3.88 µM (inactive) | 6.24 µM (inactive) | 7.06 µM (inactive) | 14 µM (inactive) | 15.9 µM (inactive) | 5.97 µM (inactive) | 4.65 µM (inactive) | 6.18 µM (inactive) | 3.38 µM (inactive) | 3.72 µM (inactive) | 1.95 µM (inactive) | 2.3 µM (inactive) | 1.8 µM (inactive) | 1.84 µM (inactive) | 2.16 µM (inactive) | 2.56 µM (inactive) | 3.4 µM (inactive) | – | –
O=C1c2ccccc2C(=O)c2sc(Nc3cccc(Cl)c3)nc21 | 0.966 µM (active) | 1.6 µM (inactive) | 2.07 µM (inactive) | 1.56 µM (inactive) | 2.07 µM (inactive) | 5.38 µM (inactive) | 1.49 µM (inactive) | 2.38 µM (inactive) | 2.03 µM (inactive) | 2.01 µM (inactive) | 1.31 µM (inactive) | 1.82 µM (inactive) | 8.11 µM (inactive) | 1.45 µM (inactive) | 1.45 µM (inactive) | 1.27 µM (inactive) | 1.81 µM (inactive) | 1.56 µM (inactive) | – | –
O=C(O)CN(c1ccccc1)S(=O)(=O)c1cccc([N+](=O)[O-])c1 | > 100 µM (inactive) | > 100 µM (inactive) | > 100 µM (inactive) | > 100 µM (inactive) | > 100 µM (inactive) | > 100 µM (inactive) | > 100 µM (inactive) | > 100 µM (inactive) | > 100 µM (inactive) | > 100 µM (inactive) | > 100 µM (inactive) | > 100 µM (inactive) | > 100 µM (inactive) | > 100 µM (inactive) | > 100 µM (inactive) | > 100 µM (inactive) | > 100 µM (inactive) | > 100 µM (inactive) | – | –
CCOc1ccc(/N=C\c2ccc3cc(C)ccc3n2)cc1 | 22.8 µM (inactive) | 50.2 µM (inactive) | 49 µM (inactive) | 57.8 µM (inactive) | 69.3 µM (inactive) | > 100 µM (inactive) | > 100 µM (inactive) | 55.6 µM (inactive) | 37.1 µM (inactive) | 69 µM (inactive) | > 100 µM (inactive) | 40.7 µM (inactive) | > 100 µM (inactive) | 75.3 µM (inactive) | > 100 µM (inactive) | 30.6 µM (inactive) | > 100 µM (inactive) | 51.6 µM (inactive) | – | –
S=C(S)NCCCn1ccnc1 | > 100 µM (inactive) | > 100 µM (inactive) | > 100 µM (inactive) | > 100 µM (inactive) | > 100 µM (inactive) | > 100 µM (inactive) | > 100 µM (inactive) | > 100 µM (inactive) | > 100 µM (inactive) | > 100 µM (inactive) | > 100 µM (inactive) | – | > 100 µM (inactive) | > 100 µM (inactive) | > 100 µM (inactive) | > 100 µM (inactive) | > 100 µM (inactive) | > 100 µM (inactive) | > 100 µM (inactive) | –
C[C@]12CCC3c4ccc(O)cc4CC[C@H]3C1CC(=O)N(N)C2=O (some centres not stated) | – | > 100 µM (inactive) | > 100 µM (inactive) | > 100 µM (inactive) | > 100 µM (inactive) | > 100 µM (inactive) | > 100 µM (inactive) | 64.7 µM (inactive) | > 100 µM (inactive) | > 100 µM (inactive) | > 100 µM (inactive) | > 100 µM (inactive) | > 100 µM (inactive) | > 100 µM (inactive) | > 100 µM (inactive) | – | > 100 µM (inactive) | > 100 µM (inactive) | > 100 µM (inactive) | > 100 µM (inactive)
COC(=O)C1Cc2c(n(C)c3ccccc23)C(c2ccccc2)N1 (configuration not stated) | 63.7 µM (inactive) | > 100 µM (inactive) | > 100 µM (inactive) | 21.1 µM (inactive) | 60.5 µM (inactive) | 23 µM (inactive) | > 100 µM (inactive) | 92.3 µM (inactive) | > 100 µM (inactive) | > 100 µM (inactive) | 48 µM (inactive) | > 100 µM (inactive) | > 100 µM (inactive) | 50.5 µM (inactive) | 16.9 µM (inactive) | 78.7 µM (inactive) | > 100 µM (inactive) | 80 µM (inactive) | – | –
Cc1cn2c(=O)c3ncn(C4OC(CO)C(O)C4O)c3n(C)c2n1 (configuration not stated) | > 100 µM (inactive) | > 100 µM (inactive) | > 100 µM (inactive) | > 100 µM (inactive) | > 100 µM (inactive) | > 100 µM (inactive) | > 100 µM (inactive) | > 100 µM (inactive) | > 100 µM (inactive) | > 100 µM (inactive) | > 100 µM (inactive) | > 100 µM (inactive) | > 100 µM (inactive) | > 100 µM (inactive) | > 100 µM (inactive) | > 100 µM (inactive) | > 100 µM (inactive) | > 100 µM (inactive) | – | –

— ChEMBL document CHEMBL1201862, “PubChem BioAssay data set” (2004)
